Literature values, collected in patent publication US20260263382A1, “TRANSDERMAL PATCH COMPRISING RASAGILINE MESYLATE AND PREPARATION METHOD THEREFOR” (priority 2023, published 2026).
Where a name gives a salt, the structure may show the parent alone. Read-outs that look alike come from different tables or passages of the source.

How the values were obtained:
[1] = oral preparations
[2] = oral administration at 20 mg/d for 2 weeks
[3] = carried in polyacrylate or silicone pressure-sensitive adhesives or polyvinyl alcohol, free base under weakly alkaline conditions

| Bioavailability [1] [%] | Main drug content [3] | Compound | Adverse reaction [2] | Main drug content ([3]; listed as rasagiline free base) |
| --- | --- | --- | --- | --- |
| 36 | – | C#CCN[C@@H]1CCc2ccccc21 [Rasagiline] | no serious adverse reaction | declines rapidly, even with complete degradation |
| – | no change | C#CCN[C@@H]1CCc2ccccc21 [rasagiline mesylate] | – | – |
